What was measured:
MAT2A homodimer = molecular target: T1, MAT2A homodimer (Homo sapiens, UniProt P31153); assay: MAT2A inhibition (biochemical, liberated phosphate, PiColorLock Gold); settings: recombinant MAT2A homodimer; IC50 bin with Max Inh.; read-out: Enzyme Inhibition Bin
T1 construct: inferred from Ni sepharose purification with imidazole elution; made in house; host or cells: Sf9 insect cells, baculovirus (Bac to Bac, pFASTBAC1)
Procedure, shortened: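 Enzyme at 4 μg/mL and compound equilibrated 60 min at 25 °C, then 60 min reaction after adding substrate mix (500 μM ATP, 400 μM methionine). Released phosphate quantified by colorimetric kit against a phosphate standard curve to give IC50. Secondary format used 1 μg/mL enzyme with 5 h incubation.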

[1] = tested on: SAM in HCT116 human colon carcinoma cell line with MTAP gene deleted (MTAP −/−); assay: Cellular assay of target engagement (SAM), LC-MS/MS, 72 hrs; assay type: cell-based; settings: HCT-116, IC50 bin with Max Inh., read-out: Cell 72 h SAM Inhibition (MTAP −/−)
Procedure, shortened: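 SAM levels were quantified by LC-MS/MS (m/z 399.2→250.1, d3-SAM internal standard) from cold methanol/acetic acid extracts, yielding IC50. Compound was applied as a 10-point 3-fold series for 72 hrs to MTAP −/− HCT116 cells seeded 24 hours before.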

HCT116 MTAP−/− = assay: Inhibition of cellular proliferation, 4 days, Cell Titer Glo, HCT116 MTAP−/−; assay type: cell-based; settings: Homo sapiens, HCT-116, 96 h, IC50 bin with Max Inh., read-out: 4 Day Relative Growth Inhibition (MTAP −/−)
Procedure, shortened: (§1)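 IC50 derived from blank-corrected ATP luminescence (Cell Titer Glo) expressed relative to within-plate 0.2% DMSO wells. Compound, as a 10-point 3-fold series, was added 24 h after seeding the MTAP+/+ or MTAP−/− HCT116 cells and incubated 4 days at 37° C./5% CO2.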

HCT116 MTAP+/+ = assay: Inhibition of cellular proliferation, 4 days, Cell Titer Glo, HCT116 MTAP+/+; assay type: cell-based; settings: Homo sapiens, HCT-116, 96 h, IC50 bin with Max Inh., read-out: 4 Day Relative Growth Inhibition (MTAP +/+)
Procedure, shortened: as §1

T1 sequence (P31153 whole entry): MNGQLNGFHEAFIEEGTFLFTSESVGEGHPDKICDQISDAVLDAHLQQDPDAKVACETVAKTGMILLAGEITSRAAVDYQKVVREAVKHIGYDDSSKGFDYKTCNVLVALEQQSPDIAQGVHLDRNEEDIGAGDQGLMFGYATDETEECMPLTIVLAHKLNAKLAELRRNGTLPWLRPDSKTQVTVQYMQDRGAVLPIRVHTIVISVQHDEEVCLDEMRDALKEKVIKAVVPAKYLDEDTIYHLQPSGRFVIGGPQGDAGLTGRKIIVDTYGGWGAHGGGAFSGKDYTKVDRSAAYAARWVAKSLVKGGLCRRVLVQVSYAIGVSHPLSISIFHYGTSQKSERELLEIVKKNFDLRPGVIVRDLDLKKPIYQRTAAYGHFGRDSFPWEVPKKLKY

| IC50 (MAT2A homodimer) | IC50 [1] | IC50 (HCT116 MTAP−/−) | IC50 (HCT116 MTAP+/+) | Compound |
| --- | --- | --- | --- | --- |
| < 100 nM | < 100 nM | < 100 nM | > 1000 nM | Cn1cc2cc(-n3nc4c(C#N)cn(C[C@@H]5CC5(F)F)c4c(-c4ccc(C5CC5)nc4)c3=O)ccc2n1 [Example 268, (S)-4-(6-cyclopropylpyridin-3-yl)-5-((2,2-difluorocyclopropyl)methyl)-2-(2-methyl-2H-indazol-5-yl)-3-oxo-3,5-dihydro-2H-pyrrolo[3,2-c]pyridazine-7-carbonitrile] |
| < 100 nM | < 100 nM | > 1000 nM | > 1000 nM | Cn1cc2cc(-n3nc4c(C#N)cn(C[C@H]5CC5(F)F)c4c(-c4ccc(C5CC5)nc4)c3=O)ccc2n1 [Example 269, (R)-4-(6-cyclopropylpyridin-3-yl)-5-((2,2-difluorocyclopropyl)methyl)-2-(2-methyl-2H-indazol-5-yl)-3-oxo-3,5-dihydro-2H-pyrrolo[3,2-c]pyridazine-7-carbonitrile] |
| < 100 nM | < 100 nM | < 100 nM | 100 to 1000 nM | [2H]C([2H])([2H])n1cc2cc(-n3nc4c(C#N)cn(CC5CC5)c4c(-c4ccc(C5CC5)nc4)c3=O)ccc2n1 [Example 270, 5-(cyclopropylmethyl)-4-(6-cyclopropylpyridin-3-yl)-2-(2-(methyl-d3)-2H-indazol-5-yl)-3-oxo-3,5-dihydro-2H-pyrrolo[3,2-c]pyridazine-7-carbonitrile] |
| < 100 nM | < 100 nM | < 100 nM | 100 to 1000 nM | Cn1cc2cc(-n3nc4[nH]cc(CC5CC5)c4c(-c4ccc(OC(F)F)cc4)c3=O)ccc2n1 [Example 271, 5-(cyclopropylmethyl)-4-(4-(difluoromethoxy)phenyl)-2-(2-methyl-2H-indazol-5-yl)-2,7-dihydro-3H-pyrrolo[2,3-c]pyridazin-3-one] |

From patent US20220169654A1, “New Organic Compounds” (Servier Pharmaceuticals LLC, priority 2020, published 2022)
